Reference: PubChem BioAssay AID248 (DTP/NCI, 2004)
“And” between values parts separate entries of the source, which are not always exact repeats. Identical values can stand only once. Toxic doses and inconclusive results are not listed. No stated cut-off is given here; in the data, active means T/C of 150% or more; inactive means T/C below 125%.

System: L1210 leukemia ip in BDF1 mice, survival T/C
Test: NCI In Vivo Anticancer Drug Screen. Data for tumor model L1210 Leukemia (intraperitoneal) in B6D2F1 (BDF1) mice
Conditions: endpoint: mean survival time, higher = longer survival
In short: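 Each compound was tested against a transplantable tumor grown in mice. The endpoint was survival, with treated animals benchmarked against vehicle controls as a simple ratio.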

[1] = dose: 5.0 mg/kg/injection, schedule: Q01DX001 (ip), vehicle: saline
[2] = dose: 10.0 mg/kg/injection, schedule: Q01DX001 (ip), vehicle: saline
[3] = dose: 20.0 mg/kg/injection, schedule: Q01DX001 (ip), vehicle: saline
[4] = dose: 40.0 mg/kg/injection, schedule: Q01DX001 (ip), vehicle: saline
[5] = dose: 50.0 mg/kg/injection, schedule: Q01DX001 (ip), vehicle: saline
[6] = dose: 100.0 mg/kg/injection, schedule: Q01DX001 (ip), vehicle: saline
[7] = dose: 200.0 mg/kg/injection, schedule: Q01DX001 (ip), vehicle: saline
[8] = dose: 400.0 mg/kg/injection, schedule: Q01DX001 (ip), vehicle: saline
[9] = dose: 100.0 mg/kg/injection, schedule: Q01DX009 (ip), vehicle: Klucel (hydroxypropylcellulose) (HPC)
[10] = dose: 200.0 mg/kg/injection, schedule: Q01DX009 (ip), vehicle: Klucel (hydroxypropylcellulose) (HPC)
[11] = dose: 400.0 mg/kg/injection, schedule: Q01DX009 (ip), vehicle: Klucel (hydroxypropylcellulose) (HPC)
[12] = dose: 100.0 mg/kg/injection, schedule: Q04DX003 (ip), vehicle: other
[13] = dose: 200.0 mg/kg/injection, schedule: Q04DX003 (ip), vehicle: other
[14] = dose: 400.0 mg/kg/injection, schedule: Q04DX003 (ip), vehicle: other
[15] = dose: 100.0 mg/kg/injection, schedule: Q04DX003 (ip), vehicle: saline with Tween-80
[16] = dose: 200.0 mg/kg/injection, schedule: Q04DX003 (ip), vehicle: saline with Tween-80

Measured: T/C

Cc1cccc(OC(=O)Nc2ccc(C(=O)O)c(O)c2)c1
inactive: dose: 50.0 mg/kg/injection, schedule: Q04DX003 (ip), vehicle: gum acacia 96 % of control and 98 % of control | dose: 100.0 mg/kg/injection, schedule: Q01DX001 (ip), vehicle: gum acacia 104 % of control and 105 % of control | dose: 100.0 mg/kg/injection, schedule: Q01DX009 (ip), vehicle: gum acacia 97 % of control and 88 % of control | dose: 100.0 mg/kg/injection, schedule: Q04DX002 (ip), vehicle: gum acacia 94 % of control and 88 % of control | dose: 100.0 mg/kg/injection, schedule: Q04DX003 (ip), vehicle: gum acacia 101 % of control and 88 % of control | dose: 200.0 mg/kg/injection, schedule: Q01DX001 (ip), vehicle: gum acacia 100 % of control and 107 % of control | dose: 200.0 mg/kg/injection, schedule: Q01DX009 (ip), vehicle: gum acacia 98 % of control and 117 % of control | dose: 200.0 mg/kg/injection, schedule: Q04DX002 (ip), vehicle: gum acacia 95 % of control and 110 % of control | dose: 200.0 mg/kg/injection, schedule: Q04DX003 (ip), vehicle: gum acacia 98 % of control and 101 % of control

O=S(=O)(O)CS(=O)(=O)O.[Ag]
inactive: [1] 101 % of control | [2] 95 % of control | [3] 97 % of control | [4] 97 % of control

Oc1ccc2c(ccc3ccc4ccccc4c32)c1
inactive: dose: 100.0 mg/kg/injection, schedule: Q01DX001 (ip), vehicle: alcohol 103 % of control | dose: 200.0 mg/kg/injection, schedule: Q01DX001 (ip), vehicle: alcohol 100 % of control | dose: 400.0 mg/kg/injection, schedule: Q01DX001 (ip), vehicle: alcohol 95 % of control

CC(C)CCCC(C)C1CCC2C3CC=C4CC(OC(=O)CCl)CCC4(C)C3CCC12C (stereo not given)
inactive: [5] 101 % of control | [6] 95 % of control | [7] 95 % of control | [8] 101 % of control

CC(C)c1ccccc1SCC1=NCCN1
inactive: dose: 10.0 mg/kg/injection, schedule: Q04DX003 (ip), vehicle: Klucel (hydroxypropylcellulose) (HPC) 103 % of control | dose: 20.0 mg/kg/injection, schedule: Q04DX003 (ip), vehicle: Klucel (hydroxypropylcellulose) (HPC) 115 % of control

O=C(Nc1ccc(Cl)c(Cl)c1)Oc1ccc(Cl)cc1C(=O)Nc1ccccc1
inactive: [9] 100 % of control | [10] 100 % of control | [11] 87 % of control

COC1C(COS(=O)(=O)c2ccc(C)cc2)OC2OC(C)(C)OC21 (stereo not given)
inactive: [12] 92 % of control | [13] 97 % of control | [14] 101 % of control

O=P1(Nc2ccccc2)OCCCN1Cc1ccc(Cl)c(Cl)c1 (stereo not given)
inactive: [5] 96 % of control | [6] 102 % of control | [7] 90 % of control | [8] 102 % of control

CC(=O)c1scc2c1CCCC2
inactive: dose: 25.0 mg/kg/injection, schedule: Q01DX001 (ip), vehicle: saline with Tween-80 94 % of control | dose: 50.0 mg/kg/injection, schedule: Q01DX001 (ip), vehicle: saline with Tween-80 96 % of control | dose: 100.0 mg/kg/injection, schedule: Q01DX001 (ip), vehicle: saline with Tween-80 96 % of control

N#CCCOCCOCCC#N
inactive: dose: 100.0 mg/kg/injection, schedule: Q04DX003 (ip), vehicle: saline 109 % of control | dose: 200.0 mg/kg/injection, schedule: Q04DX003 (ip), vehicle: saline 101 % of control | dose: 400.0 mg/kg/injection, schedule: Q04DX003 (ip), vehicle: saline 95 % of control

C=CC1OC2OC(C)(C)OC2C1O (stereo not given)
inactive: [1] 91 % of control | [2] 98 % of control | dose: 18.7 mg/kg/injection, schedule: Q01DX001 (ip), vehicle: steriod suspending solution 108 % of control | [3] 93 % of control | dose: 37.5 mg/kg/injection, schedule: Q01DX001 (ip), vehicle: steriod suspending solution 103 % of control | [4] 96 % of control | dose: 75.0 mg/kg/injection, schedule: Q01DX001 (ip), vehicle: steriod suspending solution 109 % of control | dose: 150.0 mg/kg/injection, schedule: Q01DX001 (ip), vehicle: steriod suspending solution 98 % of control | dose: 200.0 mg/kg/injection, schedule: Q01DX001 (ip), vehicle: steriod suspending solution 104 % of control | dose: 400.0 mg/kg/injection, schedule: Q01DX001 (ip), vehicle: steriod suspending solution 103 % of control

O=C(O)c1cc(C(=O)Nc2cccc3ccccc23)c(C(=O)O)cc1C(=O)Nc1cccc2ccccc12
inactive: dose: 100.0 mg/kg/injection, schedule: Q01DX009 (ip), vehicle: saline with Tween-80 96 % of control and 87 % of control | dose: 100.0 mg/kg/injection, schedule: Q04DX002 (ip), vehicle: saline with Tween-80 104 % of control and 116 % of control | [15] 100 % of control | dose: 200.0 mg/kg/injection, schedule: Q01DX009 (ip), vehicle: saline with Tween-80 97 % of control and 91 % of control | dose: 200.0 mg/kg/injection, schedule: Q04DX002 (ip), vehicle: saline with Tween-80 94 % of control and 103 % of control | [16] 105 % of control | dose: 400.0 mg/kg/injection, schedule: Q01DX009 (ip), vehicle: saline with Tween-80 100 % of control and 92 % of control | dose: 400.0 mg/kg/injection, schedule: Q04DX002 (ip), vehicle: saline with Tween-80 93 % of control and 89 % of control | dose: 400.0 mg/kg/injection, schedule: Q04DX003 (ip), vehicle: saline with Tween-80 98 % of control

CC(OC1OC(C(=O)O)C(O)C(O)C1O)c1ccccc1 (stereo not given)
inactive: dose: 100.0 mg/kg/injection, schedule: Q01DX009 (ip), vehicle: saline 98 % of control | dose: 200.0 mg/kg/injection, schedule: Q01DX009 (ip), vehicle: saline 97 % of control | dose: 400.0 mg/kg/injection, schedule: Q01DX009 (ip), vehicle: saline 105 % of control

CCOC(=O)Nc1cccc([N+](=O)[O-])c1
inactive: [12] 93 % of control | [13] 102 % of control | [14] 91 % of control

O=C(O)Cc1ccccc1
inactive: dose: 18.75 mg/kg/injection, schedule: Q01DX009 (ip), vehicle: acetone 95 % of control | dose: 37.5 mg/kg/injection, schedule: Q01DX009 (ip), vehicle: acetone 90 % of control | dose: 37.5 mg/kg/injection, schedule: Q04DX003 (ip), vehicle: acetone 96 % of control | dose: 75.0 mg/kg/injection, schedule: Q01DX001 (ip), vehicle: carboxymethylcellulose (CMC) 96 % of control | dose: 75.0 mg/kg/injection, schedule: Q01DX001 (ip), vehicle: saline 95 % of control | dose: 75.0 mg/kg/injection, schedule: Q01DX009 (ip), vehicle: acetone 90 % of control | dose: 75.0 mg/kg/injection, schedule: Q04DX003 (ip), vehicle: acetone 91 % of control | dose: 150.0 mg/kg/injection, schedule: Q01DX001 (ip), vehicle: carboxymethylcellulose (CMC) 94 % of control | dose: 150.0 mg/kg/injection, schedule: Q01DX001 (ip), vehicle: saline 93 % of control | dose: 150.0 mg/kg/injection, schedule: Q04DX003 (ip), vehicle: acetone 98 % of control

CCCCCc1cc[n+](CC(O)c2ccccc2)cc1 (stereo not given)
inactive: [6] 94 % of control

COc1ccc(/C=N/NC(=S)Nc2ccccc2)cc1OC
inactive: [9] 94 % of control and 100 % of control | [10] 89 % of control | [11] 96 % of control and 86 % of control

Nc1ccc(CCc2ccccc2)cc1
inactive: dose: 50.0 mg/kg/injection, schedule: Q01DX009 (ip), vehicle: saline with Tween-80 97 % of control

CCOc1ccc2nc(Cl)sc2c1
inactive: dose: 50.0 mg/kg/injection, schedule: Q01DX009 (ip), vehicle: Klucel (hydroxypropylcellulose) (HPC) 92 % of control | dose: 75.0 mg/kg/injection, schedule: Q04DX003 (ip), vehicle: Klucel (hydroxypropylcellulose) (HPC) 93 % of control | [9] 94 % of control | dose: 150.0 mg/kg/injection, schedule: Q04DX003 (ip), vehicle: Klucel (hydroxypropylcellulose) (HPC) 96 % of control

CCN(CC)C(=O)Nc1cccc(OC(=O)NC)c1
inactive: [15] 99 % of control | [16] 98 % of control

CCCCNc1c(C2=NCCN2)cnc2c1cnn2CC
inactive: dose: 25.0 mg/kg/injection, schedule: Q04DX003 (ip), vehicle: Klucel (hydroxypropylcellulose) (HPC) 92 % of control | dose: 50.0 mg/kg/injection, schedule: Q04DX003 (ip), vehicle: Klucel (hydroxypropylcellulose) (HPC) 99 % of control | dose: 100.0 mg/kg/injection, schedule: Q04DX003 (ip), vehicle: Klucel (hydroxypropylcellulose) (HPC) 90 % of control and 92 % of control

O=[N+]([O-])c1[nH]cnc1S(=O)(=O)Cl
inactive: [6] 94 % of control | [7] 94 % of control | [8] 97 % of control
